IC50 data for nine compounds are collected here from US8962648B2, “Tricyclic compounds and PBK inhibitors containing the same” (OncoTherapy Science, Inc., priority 2010, dated 2015).

As a reminder, the pIC50 is −log10 of the IC50, conventionally taken in molar units. A low value points to a high IC50.

pIC50: −log10 of the molar value. Counter-ions that a name gives are not always drawn. Like-named read-outs stand apart in the source and are kept apart here.

One test has as its target PBK (Homo sapiens (Human), UniProt Q96KB5). Nature of the test: Kinase assay (IMAP fluorescence polarization, FITC-labeled histone H3 peptide). It counts as biochemical. How it is done: PBK activity was determined in the presence or absence of compounds using fluorescein isothiocyanate-labeled (FITC-labeled) histone H3 peptide as a substrate. […] The serially diluted compounds, 0.8 ng/micro-L PBK (Carna Biosciences) and 100 nM FITC-labeled histone H3 peptide were reacted in a reaction buffer (20 mM HEPES, 0.01% Tween-20, 0.3 mM MgCl2, 2 mM dithiothreitol, 50 micro-M ATP, pH 7.4) at room temperature for 1 hour. The reaction was stopped by the addition of three fold assay volume of progressive binding solution. […] IC50 values were calculated by nonlinear four parameter fit using SigmaPlot, version 10.0 (Systat Software, Inc.).
In general terms: In fluorescence polarisation assays a small probe gives low polarisation when free and higher when bound to something large.

The next test deals with A549 cells. Briefly: Cell-based assay, cellular growth (Cell Counting Kit-8, 72 hours). The method, then:
(§1) 100 micro-L of cell suspension was seeded onto 96-well microtiter plate (ViewPlate-96FTC, PerkinElmer). […] Cellular growth was determined using Cell Counting Kit-8 (DOJINDO) at 72 hours after the exposure of the candidate inhibitors. […] Accurate IC50 values were calculated as described previously.

For a further test, the system named is BT-549 cells. The description is as above. The following applies: Homo sapiens, BT549 cells. The method, then: as §1
The test system of a further test is T47D cells. The test is described as above. The method, then: as §1
For another test, the system named is HT-1197 cells. Nature of the test: Cell-based assay, cellular growth (Cell Counting Kit-8, 72 hours), PBK-negative control cells. How it is done:
as §1

[1] abbreviates: PBK 0.8 ng/micro-L, 50 micro-M ATP, 100 nM FITC-labeled histone H3 peptide, room temperature 1 hour.
Setting [2] is: PBK 0.8 ng/micro-L, 50 micro-M ATP, 100 nM FITC-labeled histone H3 peptide, room temperature 1 hour, hydrobromide.
Where [3] appears, read: HT1197 cells (PBK-negative control), hydrobromide.

PBK, sequence (Q96KB5 whole entry): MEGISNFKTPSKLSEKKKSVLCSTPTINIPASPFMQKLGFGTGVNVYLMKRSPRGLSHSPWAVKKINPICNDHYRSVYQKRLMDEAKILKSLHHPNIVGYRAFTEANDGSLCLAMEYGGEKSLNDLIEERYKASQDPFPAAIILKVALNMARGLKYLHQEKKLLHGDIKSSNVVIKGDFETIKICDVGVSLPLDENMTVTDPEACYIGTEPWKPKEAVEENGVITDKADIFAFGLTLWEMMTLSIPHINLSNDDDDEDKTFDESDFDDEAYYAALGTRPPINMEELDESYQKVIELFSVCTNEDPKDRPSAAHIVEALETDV

Take `CNCC(c1ccc(-c2c(O)cc(C)c3[nH]c(=O)c4sccc4c23)cc1F)C(C)C` (stereo not drawn) [Compound 1294, 9-(3-fluoro-4-(3-methyl-1-(methylamino)butan-2-yl)phenyl)-8-hydroxy-6-methylthieno[2,3-c]quinolin-4(5H)-one]: the pIC50 was 7.77 on PBK (setting [1]); 7.11 with A549 cells (Homo sapiens, A549, 72 h); 7.07 in the test with BT-549 cells; 6.74 with T47D cells (Homo sapiens, T47D, 72 h); 6.47 in the test on HT-1197 cells (Homo sapiens, HT1197, 72 h).

For `Cc1cc(O)c(-c2ccc([C@H](C)CN(C)C)c(F)c2)c2c1[nH]c(=O)c1sccc12` [Compound 1399, (S)-9-(4-(1-(dimethylamino)propan-2-yl)-3-fluorophenyl)-8-hydroxy-6-methylthieno[2,3-c]quinolin-4(5H)-one hydrochloride], the negative-log IC50 (pIC50) against PBK is 7.24; in the test with A549 cells (Homo sapiens, A549, 72 h), 6.74; in the test on T47D cells (Homo sapiens, T47D, 72 h) it was 6.35; in the test with HT-1197 cells (Homo sapiens, HT1197, 72 h), 6.33.

Turning to `CC[C@@H](CNC)c1ccc(-c2c(O)cc(C)c3[nH]c(=O)c4sccc4c23)cc1` [Compound 1380, (R)-8-hydroxy-6-methyl-9-(4-(1-(methylamino)butan-2-yl)phenyl)thieno[2,3-c]quinolin-4(5H)-one hydrochloride], the pIC50 against PBK is 7.07; with A549 cells (Homo sapiens, A549, 72 h) it was 7.02; in the test on T47D cells (Homo sapiens, T47D, 72 h) it was 6.62; with HT-1197 cells (Homo sapiens, HT1197, 72 h) it was 6.43.

With `Cc1cc(O)c(-c2ccc([C@H](C)CN)c(F)c2)c2c1[nH]c(=O)c1sccc12` [Compound 1304, (S)-9-(4-(1-aminopropan-2-yl)-3-fluorophenyl)-8-hydroxy-6-methylthieno[2,3-c]quinolin-4(5H)-one hydrobromide], the pIC50 is 7.89 against PBK (setting [2]), 7.00 in the test on A549 cells (hydrobromide), 6.92 with T47D cells (hydrobromide) and 6.47 in the test with HT-1197 cells (setting [3]).

For the compound `Cc1cc(O)c(-c2ccc([C@@H](C)CN(C)C)cc2)c2c1[nH]c(=O)c1sccc12` [Compound 1324, (R)-9-(4-(1-(dimethylamino)propan-2-yl)phenyl)-8-hydroxy-6-methylthieno[2,3-c]quinolin-4(5H)-one hydrochloride], the pIC50 with A549 cells (Homo sapiens) is 7.62; with BT-549 cells it was 7.52; with T47D cells (Homo sapiens), 7.18.

On to `Cc1cc(O)c(-c2ccc(N(C)CCN)cc2)c2c1[nH]c(=O)c1sccc12` [Compound 1400, 9-(4-((2-aminoethyl)(methyl)amino)phenyl)-8-hydroxy-6-methylthieno[2,3-c]quinolin-4(5H)-one hydrochloride], for which the pIC50 is 7.22 against PBK (setting [1]); 6.05 in the test on A549 cells (Homo sapiens, A549, 72 h); 5.85 with T47D cells (Homo sapiens, T47D, 72 h); 5.55 with HT-1197 cells (Homo sapiens, HT1197, 72 h).

On to `CCN(C)C[C@H](C)c1ccc(-c2c(O)cc(C)c3[nH]c(=O)c4sccc4c23)cc1` [Compound 1379, (R)-9-(4-(1-(ethyl(methyl)amino)propan-2-yl)phenyl)-8-hydroxy-6-methylthieno[2,3-c]quinolin-4(5H)-one hydrochloride], for which the pIC50 was 7.12 against PBK; 6.96 in the test on A549 cells (Homo sapiens, A549, 72 h); 6.55 in the test on T47D cells (Homo sapiens, T47D, 72 h); 6.51 in the test with HT-1197 cells (Homo sapiens, HT1197, 72 h).

On to `Cc1cc(O)c(-c2ccc([C@@H](C)CN)c(F)c2)c2c1[nH]c(=O)c1sccc12` [Compound 1319, (R)-9-(4-(1-aminopropan-2-yl)-3-fluorophenyl)-8-hydroxy-6-methylthieno[2,3-c]quinolin-4(5H)-one hydrobromide], for which the pIC50 was 8.47 against PBK (setting [2]), 7.85 with A549 cells (hydrobromide), 7.80 with T47D cells (hydrobromide) and 7.27 in the test with HT-1197 cells (setting [3]).

For the compound `CNC[C@H](C)c1ccc(-c2c(O)cc(C)c3[nH]c(=O)c4sccc4c23)cc1` [Compound 1306, (R)-8-hydroxy-6-methyl-9-(4-(1-(methylamino)propan-2-yl)phenyl)thieno[2,3-c]quinolin-4(5H)-one hydrochloride], the pIC50 against PBK (PBK 0.8 ng/micro-L, 50 micro-M ATP, 100 nM FITC-labeled histone H3 peptide, room temperature 1 hour, hydrochloride) was 8.14; with A549 cells (hydrochloride), 7.70; in the test on T47D cells (hydrochloride), 7.46; in the test with HT-1197 cells (HT1197 cells (PBK-negative control), hydrochloride) it was 7.14.
